Experimental data reported in patent publication US7915291B2, “Hepatitis C virus inhibitors” (Bristol-Myers Squibb Company, priority 2002, dated 2011).

How the values were obtained:
[1] = biological target: HCV NS3/4A protease complex, BMS strain (UniProt P27958, C1454S/C1711G, species not given/STRAIN_BMS); assay: Recombinant HCV NS3/4A protease complex FRET peptide assay (BMS strain); format: biochemical, HCV genotype 1a; conditions: NS3/4A BMS strain; read-out: IC50 range
Summary of the method: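 Recombinant BMS-strain NS3/4A (His-tagged NS4A with three-lysine tail, E. coli) at 2-3 nM preincubated 1 min with compound, then 2 μM ester-linked NS4A/NS4B-based FRET peptide added. Fluorescence followed in real time ~15 min at 25° C. Percent inhibition from slope of linear fluorescence change versus no-compound control.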

[2] = tested on: HCV replicon in Huh7 cells; assay: HCV replicon cell-based assay; set-up: species or system HCV strain 1B; conditions: Hepatitis C virus, Huh-7; HCV replicon, Huh7 cells; read-out: EC50 range

Compound | IC50 [1] [nM] | EC50 [2] [nM]
C=C[C@@H]1C[C@]1(NC(=O)[C@@H]1C[C@@H](Oc2nccc3cc(OC)ccc23)CN1C(=O)[C@@H](NC(=O)N[C@@H](C(=O)OC)C(C)C)C(C)(C)C)C(=O)NS(=O)(=O)C1CC1 [Compound 142] | < 100 | < 100
C=C[C@@H]1C[C@]1(NC(=O)[C@@H]1C[C@@H](Oc2nccc3cc(OC)ccc23)CN1C(=O)[C@@H](NC(=O)OC(C)(C)C)C1CCCCC1)C(=O)NS(=O)(=O)C1CC1 [Compound 143] | < 100 | < 100
C=C[C@@H]1C[C@]1(NC(=O)[C@@H]1C[C@@H](Oc2nccc3cc(OC)ccc23)CN1C(=O)[C@@H](NC(=O)NCC(=O)OC)C(C)(C)C)C(=O)NS(=O)(=O)C1CC1 [Compound 144] | < 100 | 100 to 1000
C=C[C@@H]1C[C@]1(NC(=O)[C@@H]1C[C@@H](Oc2nccc3cc(OC)ccc23)CN1C(=O)[C@@H](NC(=O)N[C@@H](C)C(=O)OC)C(C)(C)C)C(=O)NS(=O)(=O)C1CC1 [Compound 145] | < 100 | 100 to 1000
C=C[C@@H]1C[C@]1(NC(=O)[C@@H]1C[C@@H](Oc2nccc3cc(OC)ccc23)CN1C(=O)[C@@H](NC(=O)N[C@@H](Cc1c[nH]cn1)C(=O)OC)C(C)(C)C)C(=O)NS(=O)(=O)C1CC1 [Compound 147] | < 100 | 1000 to 10000
C=C[C@@H]1C[C@]1(NC(=O)[C@@H]1C[C@@H](Oc2nccc3cc(OC)ccc23)CN1C(=O)[C@@H](NC(=O)N[C@H](C(=O)OCC)C(C)C)C(C)(C)C)C(=O)NS(=O)(=O)C1CC1 [Compound 148] | < 100 | < 100
C=C[C@@H]1C[C@]1(NC(=O)[C@@H]1C[C@@H](Oc2nccc3cc(OC)ccc23)CN1C(=O)[C@@H](NC(=O)OC(C)(C)C)C1CCCC1)C(=O)NS(=O)(=O)C1CC1 [Compound 149] | < 100 | < 100
C=C[C@@H]1C[C@]1(NC(=O)[C@@H]1C[C@@H](Oc2nccc3cc(OC)ccc23)CN1C(=O)[C@@H](NC(=O)N[C@H](C(=O)OCc1ccccc1)C(C)C)C(C)(C)C)C(=O)NS(=O)(=O)C1CC1 [Compound 150] | < 100 | < 100
C=C[C@@H]1C[C@]1(NC(=O)[C@@H]1C[C@@H](Oc2nccc3cc(OC)ccc23)CN1C(=O)[C@@H](NC(=O)N[C@H](C(=O)OC)[C@@H](C)CC)C(C)(C)C)C(=O)NS(=O)(=O)C1CC1 [Compound 151] | < 100 | < 100
C=C[C@@H]1C[C@]1(NC(=O)[C@@H]1C[C@@H](Oc2nccc3cc(OC)ccc23)CN1C(=O)[C@@H](NC(=O)N[C@H](C(=O)OC(C)(C)C)C(C)C)C(C)(C)C)C(=O)NS(=O)(=O)C1CC1 [Compound 152] | < 100 | < 100
C=C[C@@H]1C[C@]1(NC(=O)[C@@H]1C[C@@H](Oc2nccc3cc(OC)ccc23)CN1C(=O)[C@@H](NC(=O)N(C)[C@H](C(=O)OC)C(C)C)C(C)(C)C)C(=O)NS(=O)(=O)C1CC1 [Compound 154] | < 100 | 100 to 1000
C=C[C@@H]1C[C@]1(NC(=O)[C@@H]1C[C@@H](Oc2nccc3cc(OC)ccc23)CN1C(=O)[C@@H](NC(=O)OC(C)(C)C(F)(F)F)C(C)(C)C)C(=O)NS(=O)(=O)C1CC1 [Compound 155] | < 100 | < 100
C=CC1C[C@]1(NC(=O)[C@@H]1C[C@@H](Oc2cc(C(F)(F)F)nc3ccccc23)CN1C(=O)[C@@H](NC(=O)OC(C)(C)C)C(C)(C)C)C(=O)NS(=O)(=O)C1CC1 (stereo partly drawn) [Compound 180, BOCNH-P3(L-tert-BuGly)-P2[(4R)-(2-trifluoromethyl quinolin-4-oxo)-S-proline]-P1(1R,2S Vinyl Acca)-CONHSO2-Cyclopropane] | < 100 | 100 to 1000
C=CC1C[C@]1(NC(=O)[C@@H]1C[C@@H](Oc2cc(C(F)(F)F)nc3c(C(F)(F)F)cccc23)CN1C(=O)[C@@H](NC(=O)OC(C)(C)C)C(C)(C)C)C(=O)NS(=O)(=O)C1CC1 (stereo partly drawn) [Compound 181, BOCNH-P3(L-tert-BuGly)-P2[(4R)-(2,8-bistrifluoromethyl quinolin-4-oxo)-S-proline]-P1(1R,2S Vinyl Acca)-CONHSO2-Cyclopropane] | < 100 | 100 to 1000
